This passage reports T/C results from PubChem BioAssay AID250 (DTP/NCI, 2004).

In this assay the test system is BDF1 mice, L1210 leukemia sc, survival T/C. Description: NCI In Vivo Anticancer Drug Screen. Data for tumor model L1210 Leukemia (subcutaneous) in B6D2F1 (BDF1) mice. The note with it: higher = longer survival. In a few lines:
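Antitumor activity is assessed in mice with transplanted tumors by comparing the treated group (T) with the vehicle control group (C).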

[1] abbreviates: endpoint: median survival time, dose: 65.0 mg/kg/injection, schedule: Q01DX Z (sc), vehicle: methylcellulose (MC).
Setting [2] is: endpoint: median survival time, dose: 108.0 mg/kg/injection, schedule: Q01DX Z (sc), vehicle: methylcellulose (MC).
The mark [3] stands for this setting: endpoint: median survival time, dose: 180.0 mg/kg/injection, schedule: Q01DX Z (sc), vehicle: methylcellulose (MC).
The mark [4] stands for this setting: endpoint: median survival time, dose: 300.0 mg/kg/injection, schedule: Q01DX Z (sc), vehicle: methylcellulose (MC).
The mark [5] stands for this setting: endpoint: median survival time, dose: 39.0 mg/kg/injection, schedule: Q01DX Z (sc), vehicle: saline.
Setting [6] is: endpoint: median survival time, dose: 65.0 mg/kg/injection, schedule: Q01DX Z (sc), vehicle: saline.
Setting [7] is: endpoint: median survival time, dose: 108.0 mg/kg/injection, schedule: Q01DX Z (sc), vehicle: saline.

Several values for one entry are separate records, joined by “and”; a condition that tells them apart may be missing. Identical values can stand only once. Inconclusive results and toxic doses are left out.

On to `Nc1ccc(S(=O)(=O)Nc2ccc(Nc3c4ccccc4nc4ccccc34)cc2)cc1`, for which the T/C runs as follows: (endpoint: median survival time, dose: 1.5 mg/kg/injection, schedule: Q01DX009 (ip), vehicle: saline with Tween-80) 100 % of control; (endpoint: median survival time, dose: 3.0 mg/kg/injection, schedule: Q01DX009 (ip), vehicle: saline with Tween-80) 112 % of control; (endpoint: median survival time, dose: 6.0 mg/kg/injection, schedule: Q01DX009 (ip), vehicle: saline with Tween-80) 112 % of control; (endpoint: median survival time, dose: 12.0 mg/kg/injection, schedule: Q01DX009 (ip), vehicle: saline with Tween-80) 112 % of control.
For `Nc1nc(=S)c2ncn(C3OC(COC(=O)c4ccccc4)C(OC(=O)c4ccccc4)C3OC(=O)c3ccccc3)c2[nH]1` (stereo not given), the T/C (endpoint: median survival time, dose: 23.0 mg/kg/injection, schedule: Q01DX Z (sc), vehicle: methylcellulose (MC)) is 100 % of control; the T/C (endpoint: median survival time, dose: 39.0 mg/kg/injection, schedule: Q01DX Z (sc), vehicle: methylcellulose (MC)) was 100 % of control; the T/C under setting [1] was 110 % of control; the T/C under setting [2] is 100 % of control and 112 % of control; the T/C under setting [3] is 108 % of control; the T/C under setting [4] is 100 % of control. Besides, the T/C (endpoint: median survival time, dose: 500.0 mg/kg/injection, schedule: Q01DX Z (sc), vehicle: methylcellulose (MC)) was 91 % of control.
In the case of `CCOC(=O)C(N)Cc1ccc(N(CCCl)CCCl)cc1` (stereo not given), the T/C (endpoint: median survival time, dose: 23.0 mg/kg/injection, schedule: Q01DX Z (sc), vehicle: saline) is 110 % of control and 119 % of control; the T/C under setting [5] is 104 % of control and 110 % of control; the T/C under setting [6] is 100 % of control and 104 % of control; the T/C under setting [7] was 90 % of control.
For `CCCSc1ncnc2nc[nH]c12`, the T/C runs as follows: (endpoint: median survival time, dose: 38.9 mg/kg/injection, schedule: Q01DX Z (sc), vehicle: methylcellulose (MC)) 100 % of control; (endpoint: median survival time, dose: 64.8 mg/kg/injection, schedule: Q01DX Z (sc), vehicle: methylcellulose (MC)) 100 % of control; under setting [2], 100 % of control; under setting [3], 120 % of control; under setting [4], 110 % of control.
For the molecule `O=c1nc2[nH]c(=O)[nH]c(=O)c2n[nH]1`, the T/C runs as follows: (endpoint: median survival time, dose: 10.0 mg/kg/injection, schedule: Q01DX Z (sc), vehicle: saline) 100 % of control; (endpoint: median survival time, dose: 28.0 mg/kg/injection, schedule: Q01DX Z (sc), vehicle: saline) 100 % of control; (endpoint: median survival time, dose: 47.0 mg/kg/injection, schedule: Q01DX Z (sc), vehicle: saline) 100 % of control; (endpoint: median survival time, dose: 78.0 mg/kg/injection, schedule: Q01DX Z (sc), vehicle: saline) 100 % of control.
As to `CCN(CC)C(=O)c1cccnc1`, the T/C was 109 % of control (endpoint: median survival time, dose: 28.0 mg/kg/injection, schedule: Q01DX Z (sc), vehicle: water); 100 % of control (endpoint: median survival time, dose: 46.7 mg/kg/injection, schedule: Q01DX Z (sc), vehicle: water); 100 % of control (endpoint: median survival time, dose: 77.8 mg/kg/injection, schedule: Q01DX Z (sc), vehicle: water); 100 % of control (endpoint: median survival time, dose: 130.0 mg/kg/injection, schedule: Q01DX Z (sc), vehicle: water); 100 % of control (endpoint: median survival time, dose: 216.0 mg/kg/injection, schedule: Q01DX Z (sc), vehicle: water).
For `NS(=O)(=O)c1ncnc2nc[nH]c12`, the T/C is, setting by setting: under setting [1], 100 % of control; under setting [2], 105 % of control.
Turning to `CCSc1nc(Cl)cc(Sc2nc(N)nc3nc[nH]c23)n1`, the T/C was 100 % of control (endpoint: median survival time, dose: 97.5 mg/kg/injection, schedule: Q01DX Z (sc), vehicle: methylcellulose (MC)); 100 % of control (endpoint: median survival time, dose: 156.0 mg/kg/injection, schedule: Q01DX Z (sc), vehicle: methylcellulose (MC)); 100 % of control (endpoint: median survival time, dose: 250.0 mg/kg/injection, schedule: Q01DX Z (sc), vehicle: methylcellulose (MC)); 100 % of control (endpoint: median survival time, dose: 400.0 mg/kg/injection, schedule: Q01DX Z (sc), vehicle: methylcellulose (MC)); 95 % of control (endpoint: median survival time, dose: 640.0 mg/kg/injection, schedule: Q01DX Z (sc), vehicle: methylcellulose (MC)).
Take `CS(=O)(=O)Nc1ccc(Nc2c3ccccc3nc3cc(N)ccc23)cc1`: the T/C runs as follows: (endpoint: mean survival time, dose: 1.0 mg/kg/injection, schedule: Q01DX009 (ip), vehicle: saline) 103 % of control; (endpoint: mean survival time, dose: 2.0 mg/kg/injection, schedule: Q01DX009 (ip), vehicle: saline) 99 % of control.
Take `CC[n+]1c(-c2ccccc2)c2cc(N)ccc2c2ccc(N)cc21`: the T/C was 110 % of control (endpoint: median survival time, dose: 39.0 mg/kg/injection, schedule: Q01DX Z (sc), vehicle: carboxymethylcellulose (CMC)); 115 % of control (endpoint: median survival time, dose: 65.0 mg/kg/injection, schedule: Q01DX Z (sc), vehicle: carboxymethylcellulose (CMC)); 95 % of control (endpoint: median survival time, dose: 108.0 mg/kg/injection, schedule: Q01DX Z (sc), vehicle: carboxymethylcellulose (CMC)).
As for `C[C@H](N)C(=O)N[C@@H]1[C@H]2C(=C(O)C[C@@H](O)[C@@H]2O)C(=O)O[C@@H]1C`, the T/C under setting [5] is 109 % of control; the T/C under setting [6] is 109 % of control; the T/C under setting [7] is 100 % of control; the T/C (endpoint: median survival time, dose: 180.0 mg/kg/injection, schedule: Q01DX Z (sc), vehicle: saline) is 100 % of control and 104 % of control; the T/C (endpoint: median survival time, dose: 180.0 mg/kg/injection, schedule: Q#A X Z (sc), vehicle: saline) is 103 % of control; the T/C (endpoint: median survival time, dose: 300.0 mg/kg/injection, schedule: Q01DX Z (sc), vehicle: saline) was 100 % of control and 109 % of control. Also, the T/C is 107 % of control (endpoint: median survival time, dose: 300.0 mg/kg/injection, schedule: Q#A X Z (sc), vehicle: saline); 112 % of control (endpoint: median survival time, dose: 389.0 mg/kg/injection, schedule: Q01DX Z (sc), vehicle: saline); 107 % of control and 118 % of control (endpoint: median survival time, dose: 500.0 mg/kg/injection, schedule: Q01DX Z (sc), vehicle: saline); 103 % of control (endpoint: median survival time, dose: 500.0 mg/kg/injection, schedule: Q#A X Z (sc), vehicle: saline); 163 % of control (endpoint: median survival time, dose: 833.0 mg/kg/injection, schedule: Q01DX Z (sc), vehicle: saline); 115 % of control (endpoint: median survival time, dose: 1388.0 mg/kg/injection, schedule: Q#A X Z (sc), vehicle: saline). For the same molecule, the T/C (endpoint: median survival time, dose: 1800.0 mg/kg/injection, schedule: Q01DX Z (sc), vehicle: saline) was 150 % of control.
Turning to `CCN(CC)CCCC(C)Nc1c2ccc(Cl)cc2nc2ccc(OC)cc12` (stereo not given), the T/C is 90 % of control (endpoint: median survival time, dose: 23.0 mg/kg/injection, schedule: Q01DX Z (sc), vehicle: water); 100 % of control (endpoint: median survival time, dose: 39.0 mg/kg/injection, schedule: Q01DX Z (sc), vehicle: water); 100 % of control (endpoint: median survival time, dose: 65.0 mg/kg/injection, schedule: Q01DX Z (sc), vehicle: water); 95 % of control (endpoint: median survival time, dose: 108.0 mg/kg/injection, schedule: Q01DX Z (sc), vehicle: water); 100 % of control (endpoint: median survival time, dose: 180.0 mg/kg/injection, schedule: Q01DX Z (sc), vehicle: water); 100 % of control (endpoint: median survival time, dose: 300.0 mg/kg/injection, schedule: Q01DX Z (sc), vehicle: water).
